Assay results from patent US20240174727A1, “LONG-ACTING NATRIURETIC PEPTIDES AND USES THEREOF” (Eli Lilly and Company, priority 2022, published 2024).
Numbered stars: 1 amine (or outer) side, 2 acyl side, 3 side chain; on linkers, the order of the positions; unused ones are H or OH. Bridge positions count the residues as written; N and C are the ends. Square brackets hold non-standard residues; d marks the D form. * marks the point of attachment. C20 diacid = O=C(O)CCCCCCCCCCCCCCCCCCC(=O)*; γGlu = O=C(O)[C@H](CCC(=O)[*:2])N[*:1]; 4Pal = N[C@@H](Cc1ccncc1)C(=O)O

Assays:
[1] = Pharmacokinetics in male Sprague Dawley rats; type: in vivo; settings: rat, sc, mean, single subcutaneous administration of 200 nMol/kg, plasma; for half-life: read-out: t½ (converted)
Outline: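 Male Sprague Dawley rats received a single subcutaneous dose of […], with blood sampled over 120 hours. Intact peptide in K3 EDTA plasma was measured by qualified high-resolution LC/MS after methanol/0.1% formic acid extraction with an analog internal standard; PK parameters from individual plasma concentrations.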

[2] = tested on: plasma cGMP; assay: In vivo monkey studies, plasma cGMP ELISA; design: species or system male cynomolgus monkeys; settings: for Net cGMP (nM) Change from Baseline 0.083 h / Net cGMP (nM) Change from Baseline 0.25 h / Net cGMP (nM) Change from Baseline 0.5 h / Net cGMP (nM) Change from Baseline 1 h / Net cGMP (nM) Change from Baseline 2 h / Net cGMP (nM) Change from Baseline 4 h / Net cGMP (nM) Change from Baseline 8 h / Net cGMP (nM) Change from Baseline 12 h / Net cGMP (nM) Change from Baseline 24 h / Net cGMP (nM) Change from Baseline 36 h / Net cGMP (nM) Change from Baseline 48 h / Net cGMP (nM) Change from Baseline 72 h / Net cGMP (nM) Change from Baseline 96 h / Net cGMP (nM) Change from Baseline 120 h / Net cGMP (nM) Change from Baseline 144 h / Net cGMP (nM) Change from Baseline 168 h: dose 100 nmol/kg, monkey plasma; for Net cGMP (nM) Change from Baseline 0.083 h: 0.083 h postdose; for Net cGMP (nM) Change from Baseline 0.25 h: 0.25 h postdose; for Net cGMP (nM) Change from Baseline 0.5 h: 0.5 h postdose; for Net cGMP (nM) Change from Baseline 1 h: 1 h postdose; for Net cGMP (nM) Change from Baseline 2 h: 2 h postdose; for Net cGMP (nM) Change from Baseline 4 h: 4 h postdose; for Net cGMP (nM) Change from Baseline 8 h: 8 h postdose; for Net cGMP (nM) Change from Baseline 12 h: 12 h postdose; for Net cGMP (nM) Change from Baseline 24 h: 24 h postdose; for Net cGMP (nM) Change from Baseline 36 h: 36 h postdose; for Net cGMP (nM) Change from Baseline 48 h: 48 h postdose; for Net cGMP (nM) Change from Baseline 72 h: 72 h postdose; for Net cGMP (nM) Change from Baseline 96 h: 96 h postdose; for Net cGMP (nM) Change from Baseline 120 h: 120 h postdose; for Net cGMP (nM) Change from Baseline 144 h: 144 h postdose; for Net cGMP (nM) Change from Baseline 168 h: 168 h postdose; for net cGMP levels (result in words): monkeys, single SC dose, plasma
Outline: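 Plasma cGMP after one subcutaneous dose in male cynomolgus monkeys was determined by competitive ELISA on 1:20-diluted, acetylated samples. Results are net nM changes from each animal's predose baseline.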

CC[C@H](C)[C@@H]1NC(=O)[C@H](CCCNC(=N)N)NC(=O)[C@H](CC(=O)O)NC(=O)[C@H]([C@@H](C)CC)NC(=O)[C@H](CCCNC(=N)N)NC(=O)CNC(=O)CNC(=O)[C@H](Cc2ccccc2)NC(=O)[C@@H](NC(=O)[C@H](CO)NC(=O)[C@H](CO)NC(=O)[C@H](CCCNC(=N)N)NC(=O)CCNC(=O)[C@H](CCCCN)NC(=O)[C@H](CCC(=O)O)NC(=O)CNC(=O)[C@H](CCCCN)NC(=O)[C@H](CCC(=O)O)NC(=O)[C@H](CCCCN)NC(=O)[C@H](CCC(=O)O)NC(=O)[C@H](CCCCN)NC(=O)[C@H](CCC(=O)O)NC(=O)CC[C@H](NC(=O)CCCCCCCCCCCCCCCCCCC(=O)O)C(=O)O)CSCSC[C@@H](C(=O)N2CCC[C@H]2C(=O)N[C@@H](CO)C(=O)N[C@@H](Cc2ccccc2)C(=O)N[C@@H](CCCNC(=N)N)C(=O)N[C@@H](Cc2c[nH]cn2)C(=O)NCC(=O)NCC(=O)N2CCC[C@H]2C(=O)N[C@@H](CO)C(=O)N[C@@H](CO)C(=O)NCC(=O)N[C@@H](C)C(=O)N2CCC[C@H]2C(=O)N2CCC[C@H]2C(=O)N2CCC[C@H]2C(=O)N[C@@H](CO)C(N)=O)NC(=O)CNC(=O)[C@H](CC(C)C)NC(=O)CNC(=O)[C@H](CO)NC(=O)[C@H](Cc2ccc(O)cc2)NC(=O)[C@H](Cc2c[nH]cn2)NC(=O)CNC1=O [Example 56]
CL/F [1]: 0.187 mL/min/kg
half-life [1]: 36 h
Net cGMP (nM) Change from Baseline 0.083 h [2]: -2.8 nM
Net cGMP (nM) Change from Baseline 0.25 h [2]: -0.66 nM
Net cGMP (nM) Change from Baseline 0.5 h [2]: -0.65 nM
Net cGMP (nM) Change from Baseline 1 h [2]: -0.51 nM
Net cGMP (nM) Change from Baseline 2 h [2]: -1.82 nM
Net cGMP (nM) Change from Baseline 4 h [2]: 1.83 nM
Net cGMP (nM) Change from Baseline 8 h [2]: 10.57 nM
Net cGMP (nM) Change from Baseline 12 h [2]: 12.11 nM
Net cGMP (nM) Change from Baseline 24 h [2]: 17.03 nM
Net cGMP (nM) Change from Baseline 36 h [2]: 16.59 nM
Net cGMP (nM) Change from Baseline 48 h [2]: 11.66 nM
Net cGMP (nM) Change from Baseline 72 h [2]: 11.45 nM
Net cGMP (nM) Change from Baseline 96 h [2]: 9.32 nM
Net cGMP (nM) Change from Baseline 120 h [2]: 9.31 nM
Net cGMP (nM) Change from Baseline 144 h [2]: 7.36 nM
Net cGMP (nM) Change from Baseline 168 h [2]: 1.99 nM
net cGMP levels (result in words) [2]: increased net cGMP levels

{C20 diacid-γGlu}-EKEKEKGS[4Pal]RRSSCFGGRIGRIGHQSGLGCPSFRHGGPSSGAPPPS-NH2 (disulfide 14-30) [Example 29]
CL/F [1]: 0.545 mL/min/kg
half-life [1]: 12 h
Net cGMP (nM) Change from Baseline 0.083 h [2]: 2.13 nM
Net cGMP (nM) Change from Baseline 0.25 h [2]: 3.52 nM
Net cGMP (nM) Change from Baseline 0.5 h [2]: 9.03 nM
Net cGMP (nM) Change from Baseline 1 h [2]: 10.14 nM
Net cGMP (nM) Change from Baseline 2 h [2]: 15.28 nM
Net cGMP (nM) Change from Baseline 4 h [2]: 17.75 nM
Net cGMP (nM) Change from Baseline 8 h [2]: 26.8 nM
Net cGMP (nM) Change from Baseline 12 h [2]: 28.52 nM
Net cGMP (nM) Change from Baseline 24 h [2]: 31.75 nM
Net cGMP (nM) Change from Baseline 36 h [2]: 32.52 nM
Net cGMP (nM) Change from Baseline 48 h [2]: 21.75 nM
Net cGMP (nM) Change from Baseline 72 h [2]: 12.46 nM
Net cGMP (nM) Change from Baseline 96 h [2]: 12.31 nM
Net cGMP (nM) Change from Baseline 120 h [2]: 8.52 nM
Net cGMP (nM) Change from Baseline 144 h [2]: 8.28 nM
Net cGMP (nM) Change from Baseline 168 h [2]: 4.1 nM
net cGMP levels (result in words) [2]: increased net cGMP levels
